Legend:
2008 cells = test: Colony formation (clonogenic) assay, cisplatin sensitivity; assay type: cell-based, human; conditions: parental 2008 cells, continuous drug exposure
Procedure: (§1) Cells and culture. Six human ovarian carcinoma cell lines (2008, A2780, HEY, IGROV-1, KF28 and UCI 107) were used in this study. Sublines stably resistant to DDP (2008/C13*5.25, A2780/CP70, HEY C2, IGROV-1/CP, KFr13 and UCI CPR) had been prepared from each parental line by repeated in vitro exposure to DDP as previously described (Mishima et al., 2002). All cell lines were maintained in drug-free RPMI-1640 medium (GIBCO, Inc.) with 10% fetal calf serum (GIBCO, Inc.) at 37° C. in a humidified atmosphere containing 5% CO2. The degree of resistance of each subline was determined at the time RNA was harvested using a clonogenic assay with continuous drug exposure as previously described (Mishima et al., 2002).
(§2) Cisplatin sensitivity. Colony formation assays were used to determine the sensitivity of the 6 pairs of DDP-sensitive and resistant cell lines to the cytotoxic effect of DDP.

2008/C13*5.25 cells = test: as above; assay type: cell-based, human
Procedure: as §1, §2

A2780 cells = test: as above; assay type: cell-based, human; conditions: parental A2780 cells, continuous drug exposure
Procedure: as §1, §2

A2780/CP70 cells = test: as above; assay type: cell-based, human
Procedure: as §1, §2

HEY C2 cells = test: as above; assay type: cell-based, human
Procedure: as §1, §2

HEY cells = test: as above; assay type: cell-based, human; conditions: parental HEY cells, continuous drug exposure
Procedure: as §1, §2

IGROV-1 cells = test: as above; assay type: cell-based, human; conditions: parental IGROV-1 cells, continuous drug exposure
Procedure: as §1, §2

IGROV-1/CP cells = test: as above; assay type: cell-based, human
Procedure: as §1, §2

KF28 cells = test: as above; assay type: cell-based, human; conditions: parental KF28 cells, continuous drug exposure
Procedure: as §1, §2

KFr13 cells = test: as above; assay type: cell-based, human
Procedure: as §1, §2

UCI 107 cells = test: as above; assay type: cell-based, human; conditions: parental UCI 107 cells, continuous drug exposure
Procedure: as §1, §2

UCI CPR cells = test: as above; assay type: cell-based, human
Procedure: as §1, §2

[1] = test system: cells transfected with a metallothionein gene; conditions: cited from earlier work
[2] = test system: cells transfected with the c-myc gene; conditions: cited from earlier work

N.N.[Cl][Pt][Cl] [Cisplatin, cis-diamminedichloroplatinum]
IC50 (2008 cells): 700 nM
Fold-resistant (ratio of IC50 values) (2008/C13*5.25 cells; 2008/C13*5.25 vs 2008): 1.6 fold
IC50 (2008/C13*5.25 cells; resistant 2008/C13*5.25 cells, colony formation, continuous drug exposure): 1100 nM
IC50 (A2780 cells): 210 nM
Fold-resistant (ratio of IC50 values) (A2780/CP70 cells; A2780/CP70 vs A2780): 11.9 fold
IC50 (A2780/CP70 cells; resistant A2780/CP70 cells, colony formation, continuous drug exposure): 2500 nM
Fold-resistant (ratio of IC50 values) (HEY C2 cells; HEY C2 vs HEY): 6.1 fold
IC50 (HEY C2 cells; resistant HEY C2 cells, colony formation, continuous drug exposure): 4600 nM
IC50 (HEY cells): 760 nM
IC50 (IGROV-1 cells): 300 nM
Fold-resistant (ratio of IC50 values) (IGROV-1/CP cells; IGROV-1/CP vs IGROV-1): 3.6 fold
IC50 (IGROV-1/CP cells; resistant IGROV-1/CP cells, colony formation, continuous drug exposure): 1080 nM
IC50 (KF28 cells): 180 nM
Fold-resistant (ratio of IC50 values) (KFr13 cells; KFr13 vs KF28): 2.2 fold
IC50 (KFr13 cells; resistant KFr13 cells, colony formation, continuous drug exposure): 400 nM
IC50 (UCI 107 cells): 1000 nM
Fold-resistant (ratio of IC50 values) (UCI CPR cells; UCI CPR vs UCI 107): 8 fold
IC50 (UCI CPR cells; resistant UCI CPR cells, colony formation, continuous drug exposure): 8000 nM
level of increased resistance [1]: less than 5 fold
level of increased resistance [2]: less than 3 fold

— US20060019268A1, “Molecular markers of cisplatin resistance in cancer and uses thereof” (Research Development Foundation, priority 2004, published 2006)
